From patent publication US10316319B2, “Composition for diagnosis of liver metastasis of colorectal cancer and the use thereof” (SAMSUNG LIFE PUBLIC WELFARE FOUNDATION, priority 2010, dated 2019) come the findings set out here.

The structures appear in SMILES notation.

Common to all, as to assay type: cell-based
The test system of assay [1] is HCT116 colorectal cancer cells. Put plainly: Western blot of EMT markers and CCR3 in HCT116 cells. Particulars: HCT116 cells stably transfected with GFP or CCL7, with or without SB328437; Western blot (FIG. 5D). The protocol: For the Western blot, lysates from transfected HCT116 cells were obtained using Pro-prep buffer (Intron Biotechnology, Seoul, Korea), including protease inhibitors. 20-60 μg the protein extract was resolved by SDS-PAGE and transferred to polyvinylidene fluoride (PVDF) membranes and probed with antibodies against CCR1, CCR2, CCR3, CCR5, CCL7, and β-actin, as a loading control. Secondary antibodies conjugated to horseradish peroxidase were used to image the membrane.
HCT116 colorectal cancer cells were transfected with siRNA to lower expression of the CCL7 gene, and protein expression of CCL7, E-cadherin, Snail, vimentin, twist, and β-actin, as a loading control, was determined by Western blot analysis.
HCT116 colorectal cancer cells were also treated with anti-CCL7 antibodies and the CCR3 expression in cell extracts was determined via Western blot analysis.
HCT116 colorectal cancer cells were stably transfected with GFP (control) or CCL7 and the expression of E-cadherin, α-SMA, vimentin, twist, and β-actin, as a loading control, was determined via Western blot analysis.

Assay [2] concerns HCT116 colorectal cancer cells. Description: Western blot of ERK/JNK activation (pERK, pJNK) in HCT116 cells. Particulars: stably transfected HCT116, 20 μM SB328437 (FIG. 7B). The protocol: To explore the role of CCL7 signaling and CCR3 in the EMT-related pathway, activation of ERK and JNK was measured. HCT116 colorectal cancer cells were transiently transfected with siRNA against CCL7 or stably transfected with GFP (control) or CCL7. The stably transfected cells were incubated in the presence or absence of 20 μM SB328437. Cell lysates were obtained as above and assayed via Western blot analysis for pERK, total ERK, pJNK, total JNK, and β-actin.

Assay [3] concerns HCT116 colorectal cancer cells. Description: Transwell migration and matrigel invasion assay of HCT116 cells. The conditions noted are these: GFP and CCL7 transfected HCT116 treated with SB328437 (FIG. 6C). The protocol: To explore the role of CCL7 on migration and invasion of cancer cells, HCT116 colorectal cancer cells were transiently transfected with siRNA to the CCL7 gene or stably transfected with GFP (control) or CCL7. The cells (5×10^4) were loaded into the migration and invasion chambers in a 24-well plate in serum-free RPMI media. The lower chambers were supplemented with 10% FBS and the cells were incubated for 24 or 48 hours. The cells were stained with calcein or hematoxylin-eosin and mounted. Cell migration and invasion was quantified via fluorescence.

As for `COC(=O)[C@H](Cc1ccc([N+](=O)[O-])cc1)NC(=O)c1cccc2ccccc12` [SB328437], the “effect of CCL7 overexpression (reduced E-cadherin, increased α-SMA, vimentin, twist)” value in assay [1] was “blocked”. Also, the “phosphorylation of ERK and JNK increased by CCL7 overexpression” value in assay [2] was “inhibited”. Moreover, the “CCL7-induced migration and invasion of the colorectal cancer cells” value in assay [3] is on record as “blocked”.
